Assay results taken from ChEMBL document CHEMBL2401659, “Synthesis, anticancer activity and photophysical properties of novel substituted 2-oxo-2H-chromenylpyrazolecarboxylates” (Eur J Med Chem, 2013).

Key:
Type in all cases: functional, cell-based
[1] = tested on: DU-145; experiment: Cytotoxicity against human DU145 cells after 48 hrs by MTT assay; conditions: DU-145, 48 h
[2] = tested on: A549; experiment: Cytotoxicity against human A549 cells after 48 hrs by MTT assay; conditions: A549, 48 h
[3] = tested on: HeLa; experiment: Cytotoxicity against human HeLa cells after 48 hrs by MTT assay

`Cc1nn(-c2ccc(Br)cc2)c2c1c(=O)oc1ccccc12` was tested, and the IC50 [1] was 53 µM, the IC50 [2] was 130 µM and the IC50 [3] was 130 µM.
`CCOC(=O)c1c(-c2c(Cl)c3ccccc3oc2=O)nn(-c2cccc(C)c2)c1C(=O)OCC` gave an IC50 [1] of 32 µM, an IC50 [2] of 36 µM and an IC50 [3] of 30 µM.
For `Cc1nn(-c2ccccc2)c2c1c(=O)oc1ccccc12`, the IC50 [1] was 120 µM, the IC50 [2] was 119 µM and the IC50 [3] was 120 µM.
`CCOC(=O)c1c(-c2cc3cc(OC)ccc3oc2=O)nn(-c2ccccc2)c1C(=O)OCC` was tested, and the IC50 [1] was 27 µM, the IC50 [2] was 35 µM and the IC50 [3] was 145 µM.
For `CCOC(=O)c1c(-c2cc3c(ccc4ccccc43)oc2=O)nn(-c2cccc(C)c2)c1C(=O)OCC`, the IC50 [1] was 259 µM, the IC50 [2] was 179 µM and the IC50 [3] was 155 µM.
For `CCOC(=O)c1c(-c2cc3c(ccc4ccccc43)oc2=O)nn(-c2cccc(Cl)c2)c1C(=O)OCC`, the IC50 [1] was 257 µM, the IC50 [2] was 165 µM and the IC50 [3] was 170 µM.
With `CCOC(=O)c1c(-c2cc3ccccc3oc2=O)nn(-c2ccc(Br)cc2)c1C(=O)OCC` the IC50 [1] was 61 µM, the IC50 [2] was 100 µM and the IC50 [3] was 250 µM.
In the case of `CCOC(=O)c1c(-c2cc3ccc(OC)cc3oc2=O)nn(-c2cccc(Cl)c2)c1C(=O)OCC`, the IC50 [1] is reported as 38 µM, the IC50 [2] is reported as 221 µM and the IC50 [3] is reported as 205 µM.
`CCOC(=O)c1c(-c2cc3ccccc3oc2=O)nn(-c2cccc(F)c2)c1C(=O)OCC` gave an IC50 [1] of 32 µM, an IC50 [2] of 59 µM and an IC50 [3] of 68 µM.
Molecule `COc1cccc2c1C(=O)c1c(O)c3c(c(O)c1C2=O)C[C@@](O)(C(=O)CO)C[C@@H]3O[C@H]1C[C@H](N)[C@H](O)[C@H](C)O1` [DOXORUBICIN] has an IC50 [1] of 6 µM, an IC50 [2] of 4 µM and an IC50 [3] of 4.1 µM.
Work on `CCOC(=O)c1c(-c2c(Cl)c3cc(C)ccc3oc2=O)nn(-c2cccc(C)c2)c1C(=O)OCC` yielded an IC50 [1] of 103 µM, an IC50 [2] of 115 µM and an IC50 [3] of 115 µM.
`CCOC(=O)c1c(-c2cc3ccccc3oc2=O)nn(-c2cccc(Cl)c2)c1C(=O)OCC` gave an IC50 [1] of 35 µM, an IC50 [2] of 28 µM and an IC50 [3] of 22 µM.
Molecule `CCOC(=O)c1c(-c2cc3c(ccc4ccccc43)oc2=O)nn(-c2ccccc2)c1C(=O)OCC` has an IC50 [1] of 80 µM, an IC50 [2] of 136 µM and an IC50 [3] of 120 µM.
With `Cc1cccc(-n2ncc3c(=O)oc4ccccc4c32)c1` the IC50 [1] was 100 µM, the IC50 [2] was 160 µM and the IC50 [3] was 135 µM.
`Cc1ccc2oc(=O)c3cnn(-c4cccc(Cl)c4)c3c2c1` was tested, and the IC50 [1] was 105 µM, the IC50 [2] was 150 µM and the IC50 [3] was 120 µM.
With `COC(=O)c1c(-c2cc3ccccc3oc2=O)nn(-c2cccc(Cl)c2)c1C(=O)OC` the IC50 [1] was 32 µM, the IC50 [2] was 30 µM and the IC50 [3] was 76 µM.
With `Cc1cccc(-n2nc(C)c3c(=O)oc4ccccc4c32)c1` the IC50 [1] was 150 µM, the IC50 [2] was 43 µM and the IC50 [3] was 154 µM.
For `COC(=O)c1c(-c2cc3ccccc3oc2=O)nn(-c2ccccc2)c1C(=O)OC`, the IC50 [1] was 30 µM, the IC50 [2] was 28 µM and the IC50 [3] was 35 µM.
`CCOC(=O)c1c(-c2c(Cl)c3ccccc3oc2=O)nn(-c2cccc(Cl)c2)c1C(=O)OCC` showed an IC50 [1] of 24 µM, an IC50 [2] of 38 µM and an IC50 [3] of 40 µM.
`CCOC(=O)c1c(-c2cc3ccc(OCC=C(C)C)cc3oc2=O)nn(-c2cccc(Cl)c2)c1C(=O)OCC` was tested, and the IC50 [1] was 139 µM, the IC50 [2] was 163 µM and the IC50 [3] was 110 µM.
`Cc1nn(-c2cccc(Cl)c2)c2c1c(=O)oc1ccccc12` gave an IC50 [1] of 139 µM, an IC50 [2] of 85 µM and an IC50 [3] of 175 µM.
Molecule `COC(=O)c1c(-c2cc3ccccc3oc2=O)nn(-c2cccc(F)c2)c1C(=O)OC` has an IC50 [1] of 37 µM, an IC50 [2] of 50 µM and an IC50 [3] of 76 µM.
`CCOC(=O)c1c(-c2cc3ccc(OCC=C(C)C)cc3oc2=O)nn(-c2cccc(C)c2)c1C(=O)OCC` gave an IC50 [1] of 125 µM, an IC50 [2] of 178 µM and an IC50 [3] of 150 µM.
`COc1ccc2oc(=O)c3c(C)nn(-c4ccccc4)c3c2c1` was tested, and the IC50 [1] was 150 µM, the IC50 [2] was 150 µM and the IC50 [3] was 115 µM.
With `COC(=O)c1c(-c2cc3ccccc3oc2=O)nn(-c2ccc(Br)cc2)c1C(=O)OC` the IC50 [1] was 93 µM, the IC50 [2] was 165 µM and the IC50 [3] was 120 µM.
In the case of `CCOC(=O)c1c(-c2cc3ccc(OC)cc3oc2=O)nn(-c2ccccc2)c1C(=O)OCC`, the IC50 [1] is reported as 33 µM, the IC50 [2] is reported as 132 µM and the IC50 [3] is reported as 140 µM.
Molecule `CCOC(=O)c1c(-c2cc3ccccc3oc2=O)nn(-c2ccc(Cl)cc2)c1C(=O)OCC` has an IC50 [1] of 26 µM, an IC50 [2] of 35 µM and an IC50 [3] of 87 µM.
`O=c1oc2ccccc2c2c1cnn2-c1cccc(Cl)c1` gave an IC50 [1] of 60 µM, an IC50 [2] of 110 µM and an IC50 [3] of 110 µM.
With `CCOC(=O)c1c(-c2c(Cl)c3ccccc3oc2=O)nn(-c2ccc(OC)cc2)c1C(=O)OCC` the IC50 [1] was 25 µM, the IC50 [2] was 18 µM and the IC50 [3] was 27 µM.
`Cc1cccc(-n2ncc3c(=O)oc4ccc(C)cc4c32)c1` was tested, and the IC50 [1] was 130 µM, the IC50 [2] was 145 µM and the IC50 [3] was 150 µM.
With `CCOC(=O)c1c(-c2c(Cl)c3ccccc3oc2=O)nn(-c2ccc(Br)cc2)c1C(=O)OCC` the IC50 [1] was 32 µM, the IC50 [2] was 30 µM and the IC50 [3] was 500 µM.
`CCOC(=O)c1c(-c2cc3cc4c(cc3oc2=O)OC(C)(C)CC4)nn(-c2cccc(C)c2)c1C(=O)OCC` gave an IC50 [1] of 67 µM, an IC50 [2] of 175 µM and an IC50 [3] of 105 µM.
`Cc1nn(-c2ccc(Cl)cc2)c2c1c(=O)oc1ccccc12` was tested, and the IC50 [1] was 121 µM, the IC50 [2] was 136 µM and the IC50 [3] was 83 µM.
In the case of `O=c1oc2ccccc2c2c1cnn2-c1ccccc1`, the IC50 [1] is reported as 125 µM, the IC50 [2] is reported as 175 µM and the IC50 [3] is reported as 165 µM.
Molecule `COC(=O)Nc1nc2cc(C(=O)c3cccs3)ccc2[nH]1` [NOCODAZOLE] has an IC50 [1] of 2.8 µM, an IC50 [2] of 2.31 µM and an IC50 [3] of 0.71 µM.
For `CCOC(=O)c1c(-c2cc3cc4c(cc3oc2=O)OC(C)(C)CC4)nn(-c2cccc(Cl)c2)c1C(=O)OCC`, the IC50 [1] was 74 µM, the IC50 [2] was 146 µM and the IC50 [3] was 145 µM.
Work on `CCOC(=O)c1c(-c2cc3ccccc3oc2=O)nn(-c2ccc(C)c(C)c2)c1C(=O)OCC` yielded an IC50 [1] of 40 µM, an IC50 [2] of 52 µM and an IC50 [3] of 50 µM.
`CCOC(=O)c1c(-c2cc3ccc(OCC=C(C)C)cc3oc2=O)nn(-c2ccccc2)c1C(=O)OCC` gave an IC50 [1] of 75 µM, an IC50 [2] of 136 µM and an IC50 [3] of 130 µM.
For `CCOC(=O)c1c(-c2c(Cl)c3cc(C)ccc3oc2=O)nn(-c2ccccc2)c1C(=O)OCC`, the IC50 [1] was 50 µM, the IC50 [2] was 108 µM and the IC50 [3] was 228 µM.
Work on `CCOC(=O)c1c(-c2cc3cc(OC)ccc3oc2=O)nn(-c2cccc(Cl)c2)c1C(=O)OCC` yielded an IC50 [1] of 29 µM, an IC50 [2] of 148 µM and an IC50 [3] of 160 µM.
`CCOC(=O)c1c(-c2cc3ccccc3oc2=O)nn(-c2ccccc2)c1C(=O)OCC` showed an IC50 [1] of 57 µM, an IC50 [2] of 100 µM and an IC50 [3] of 100 µM.
`CCOC(=O)c1c(-c2cc3ccccc3oc2=O)nn(-c2ccc(OC)cc2)c1C(=O)OCC` showed an IC50 [1] of 39 µM, an IC50 [2] of 86 µM and an IC50 [3] of 90 µM.
`CCOC(=O)c1c(-c2c(Cl)c3ccccc3oc2=O)nn(-c2ccccc2)c1C(=O)OCC` was tested, and the IC50 [1] was 48 µM, the IC50 [2] was 34 µM and the IC50 [3] was 100 µM.
Molecule `Cc1ccc2oc(=O)c3cnn(-c4ccccc4)c3c2c1` has an IC50 [1] of 110 µM, an IC50 [2] of 125 µM and an IC50 [3] of 192 µM.
In the case of `CCOC(=O)c1c(-c2cc3cc(OC)ccc3oc2=O)nn(-c2cccc(C)c2)c1C(=O)OCC`, the IC50 [1] is reported as 31 µM, the IC50 [2] is reported as 102 µM and the IC50 [3] is reported as 155 µM.
`Cc1nn(-c2cccc(F)c2)c2c1c(=O)oc1ccccc12` gave an IC50 [1] of 134 µM, an IC50 [2] of 125 µM and an IC50 [3] of 276 µM.
`CCOC(=O)c1c(-c2cc3cc4c(cc3oc2=O)OC(C)(C)CC4)nn(-c2ccccc2)c1C(=O)OCC` showed an IC50 [1] of 209 µM, an IC50 [2] of 189 µM and an IC50 [3] of 125 µM.
`COc1ccc(-n2nc(C)c3c(=O)oc4ccccc4c32)cc1` gave an IC50 [1] of 175 µM, an IC50 [2] of 27 µM and an IC50 [3] of 190 µM.
`CCOC(=O)c1c(-c2cc3ccccc3oc2=O)nn(-c2cccc(C)c2)c1C(=O)OCC` showed an IC50 [1] of 47 µM, an IC50 [2] of 52 µM and an IC50 [3] of 245 µM.
In the case of `CCOC(=O)c1c(-c2c(Cl)c3cc(C)ccc3oc2=O)nn(-c2cccc(Cl)c2)c1C(=O)OCC`, the IC50 [1] is reported as 156 µM, the IC50 [2] is reported as 128 µM and the IC50 [3] is reported as 125 µM.
With `COC(=O)c1c(-c2cc3ccccc3oc2=O)nn(-c2cccc(C)c2)c1C(=O)OC` the IC50 [1] was 35 µM, the IC50 [2] was 51 µM and the IC50 [3] was 45 µM.
`CCOC(=O)c1c(-c2cc3ccc(OC)cc3oc2=O)nn(-c2cccc(C)c2)c1C(=O)OCC` showed an IC50 [1] of 35 µM, an IC50 [2] of 171 µM and an IC50 [3] of 35 µM.
